pIC50: −log10 of the molar value. Where a SMILES comes first, the peptide text is derived from it. [ ]: non-standard residue; d: D form. The star is where a group is joined. Dolaproine = CO[C@@H]([C@@H]1CCCN1)[C@@H](C)C(=O)O; Dil = CC[C@H](C)[C@H](NC)[C@@H](CC(=O)O)OC; NMe2Val = CC(C)[C@@H](C(=O)*)N(C)C; NH(3-hydroxypropyl) = OCCCN*

Data set [1] relates to N87. The experiment in a line: Cell viability assay (Cell Titer-Glo). It is filed as cell-based. Conditions: 72 h incubation; AF-HPA as toxin equivalents. (In general: In ATP-based viability assays light output follows the ATP content of the culture.)
Experimental: (§1) PBRM-polymer-drug conjugates were evaluated for their antiproliferation properties in tumor cell lines in vitro using Cell Titer-Glo (Promega Corp). Cells were plated in black walled 96-well plate and allowed to adhere overnight at 37° C. in a humidified atmosphere of 5% CO2. SKBR3, BT474, NCI-N87 cells (HER2 expressing cells), MCF7 cells (HER2 low expressing levels cells) and JIMT1 cells (HER2 medium expression level cells) were plated at a density of 5,000 cells per well. The next day the medium was replaced with 50 μL fresh medium and 50 μL of 2× stocks of PBRM-polymer-drug conjugate, drug polymer conjugate or drug were added to appropriate wells, mixed and incubated for 72 h. Cell Titer-Glo reagent was added to the wells at room temperature and the luminescent signal was measured after 10 min using a SpectraMax M5 plate reader (Molecular Devices). Dose response curves were generated using SoftMax Pro software. IC50 values were determined from four-parameter curve fitting.
Data set [2] can be described thus: Mouse tissue distribution after administration of PBRM-polymer-drug conjugates.
Experimental: To determine the concentration of the free drug in the sample, the acidified sample was treated with acetonitrile. The free drug was extracted from the supernatant and analyzed by LC-MS/MS.
At 48 hours post administration, the mice were sacrificed and the blood was collected by terminal cardiac.
In data set [3] the test system is MCF7. The experiment in a line: Cell viability assay (Cell Titer-Glo). The note with it: 72 h incubation; HER2 low expressing cells; AF-HPA as toxin equivalents. It is filed as cell-based.
Experimental: as §1
For data set [4], the system named is JIMT1. The experiment in a line: Cell viability assay (Cell Titer-Glo). The note with it: 72 h incubation; HER2 medium expression level cells; AF-HPA as toxin equivalents. In kind it is cell-based.
Experimental: as §1
The subject of data set [5] is BT474. The experiment in a line: Cell viability assay (Cell Titer-Glo). It is filed as cell-based, human. Conditions: 72 h incubation; AF-HPA as toxin equivalents.
Experimental: as §1
The test system of data set [6] is HL-60. The experiment in a line: Cell viability assay (Cell Titer-Glo). In kind it is cell-based. Conditions: for pIC50: CD33 expressing cells, 72 h or 6 days incubation. The method, then:
Dose response curves were generated using SoftMax Pro software. IC50 values were determined from four-parameter curve fitting.
CD33 expressing cells HL-60 were passed at a density of 5,000 cells per well and treated with PBRM-polymer-drug conjugate on the same day. After 72 h or 6 days incubation, the cells were analyzed using the same procedure described above.

Data set [7] concerns HL-60 cells. The experiment in a line: Tumor growth response, HL-60 xenograft. The note with it: for tumor volume response (in words), FIG. 3: single IV dose day 1, 20 mg/kg. In kind it is in vivo, mice.
Experimental: Female NCr nu/nu mice were inoculated subcutaneously with HL-60 cells (n=10 for each group). Test compounds or vehicle were dosed IV as a single dose on day 1. Tumor size was measured at the times indicated in FIGS. 1 to 6 using digital calipers. Tumor volume was calculated and was used to determine the delay in tumor growth. Mice were sacrificed when tumors reached a size of 800 to 1500 mm^3. Tumor volumes are reported as the mean±SEM (“standard error of mean”) for each group.
Female NCr nu/nu mice were inoculated subcutaneously with HL-60 cells (n=10 for each group). Test compounds or vehicle were dosed IV as a single dose on day 1. Tumor size was measured at the times indicated in FIG. 3 using digital calipers. Tumor volume was calculated and was used to determine the delay in tumor growth. Mice were sacrificed when tumors reached a size of 2000 mm^3. Tumor volumes are reported as the mean±SEM for each group.
In data set [8] the test system is NCI-N87 cells. The experiment in a line: Tumor growth response, NCI-N87 xenograft. It is filed as in vivo, mice.
Experimental: (§2) Female CB-17 SCID mice were inoculated subcutaneously with BT474 tumor fragments (n=10 for each group) or JIMT-1 cells (n=10 for each group) or NCI-N87 cells (n=10 for each group). […] Test compounds or vehicle were dosed IV as a single dose on day 1. Tumor size was measured at the times indicated in FIGS. 1 to 6 using digital calipers. Tumor volume was calculated and was used to determine the delay in tumor growth. Mice were sacrificed when tumors reached a size of 800 to 1500 mm^3. Tumor volumes are reported as the mean±SEM (“standard error of mean”) for each group.
The subject of data set [9] is BT474 tumor fragments. The experiment in a line: Tumor growth response, BT474 xenograft. In kind it is in vivo, mice.
Experimental: as §2
Data set [10] has as its system SKBR3. The experiment in a line: Cell viability assay (Cell Titer-Glo). It is filed as cell-based. Conditions: 72 h incubation; AF-HPA as toxin equivalents.
Experimental: as §1
The target in data set [11] is hErbB2 (Homo sapiens, UniProt P04626). The experiment in a line: Ligand binding studies by BIAcore surface plasmon resonance (SPR). The note with it: 25° C.; immobilized hErbB2; BioRad ProteOn XPR36.
Experimental: The kinetic binding of the PBRM-polymer-drug conjugate to an immobilized receptor is determined by BIAcore SPR. The binding constants for the PBRM in the PBRM-polymer-drug conjugate and PBRM alone can be determined using standard BIAcore procedures.
The kinetic binding of the PBRM-polymer-drug conjugate to an immobilized receptor was determined by BIAcore SPR.
The test system of data set [12] is JIMT-1 cells. The experiment in a line: Tumor growth response, JIMT-1 xenograft. In kind it is in vivo, mice.
Experimental: as §2
Data set [13] concerns JIMT-1. Conditions: read-out: IC50 JIMT-1; HER2 molecules per cell 80,000; Her2 expression 2+; 72 hours or 6 days.

For the compound `CC[C@H](C)[C@@H]([C@@H](CC(=O)N1CCC[C@H]1[C@H](OC)[C@@H](C)C(=O)N[C@@H](Cc1ccccc1)C(=O)NCCCO)OC)N(C)C(=O)[C@@H](NC(=O)[C@H](C(C)C)N(C)C)C(C)C` [AF-HPA, Auristatin F-hydroxypropylamide] (NMe2Val-V[Dil][Dolaproine]F-{NH(3-hydroxypropyl)}), the pIC50 is 9.38 in data set [1]; 8.36 in data set [3]; 9.07 in data set [4]; 9.00 in data set [5]; 8.32 in data set [6]. In addition, the “metabolism of unconjugated AF-HPA in plasma (in words)” value in [2] (in plasma) was “not converted to AF”. Also, the “metabolism of released unconjugated AF-HPA in tissue (in words)” value in [2] (in tissue) is given as “further metabolized to AF”.
As for “Lintuzumab-((EG2-MI (2%)-(10 kDa PHF-BA (30%)-(AF-HPA-Ala (9%)) [Example 8]”, in data set [7] (20 mg/kg single IV dose), the “regressions, FIG. 3” value amounted to 100%. Moreover, the “tumor free survival on day 44, FIG. 3” value in [7] (20 mg/kg single IV dose, day 44) is 70%. Further, the “tumor volume response (in words), FIG. 3” value in data set [7] is “reduction of tumor volume”. In data set [6] (CD33 expressing cell line HL-60), the “antiproliferative activity compared to control conjugate (in words)” value is on record as “higher antiproliferative activity”. The compound also had a pIC50 in data set [6] of 9.11.
With “Rituximab-((EG2-MI (2%)-(10 kDa PHF-BA (28%)-(AF-HPA-Ala (9%)) [Example 16]”, the negative-log IC50 (pIC50) is 8.28 in [1], 7.55 in data set [3], 8.73 in data set [4] and 8.52 in data set [5]. For the same compound, the “tumor growth response (in words), FIG. 6” value in data set [8] (single IV dose, Example 14 at […], Example 16 at 3 mg/kg) is reported as “no effect on tumor growth”.
In data set [6], “Rituximab-((EG2-MI (3%)-(10 kDa PHF-BA (30%)-(AF-HPA-Ala (8%)) [Example 9]” showed a pIC50 of 8.17.
For “Trastuzumab-((EG2-MI (1%))-(10 kDa PHF-GA (29%)-(AF-HPA-Ala (6%)) [Example 13]”, in data set [9] (5 mg/kg single IV dose), the “regressions, FIG. 1” value turned out to be 100% and the “tumor free survival, FIG. 1” value amounted to 80%. Also, the “tumor volume response (in words), FIG. 1” value in [9] (single IV dose day 1, conjugates […] and 5 mg/kg, trastuzumab 10 mg/kg) is reported as “reduction of tumor volume”.
Consider “Trastuzumab-((EG2-MI (2%)-(10 kDa PHF-BA (28%)-(AF-HPA-Ala (9%) [Example 14]”, for which the pIC50 in data set [1] is 9.96; in data set [10], 10.70; in [3], 7.54; in data set [4] it was 9.89; in [5], 10.15. In [11], the “ka (association or affinity rate constant)” value (shortened to “ka”) is 3.91 ± 0.3 × 10^5 M^−1s^−1. The “kd (dissociation rate constant)” value in [11] is reported as 2.56 ± 0.1 × 10^−5 s^−1. Moreover, the “regressions, FIG. 4A” value in [12] (2.0 mg/kg single IV dose) worked out at 100%. In data set [12] (2.0 mg/kg single IV dose), the “tumor free survival, FIG. 4A” value came to 100%. Besides, in data set [12] (single IV dose day 1, Example 14 at 2, 0.67 and 0.3 mg/kg, trastuzumab 20 mg/kg, Kadcyla 20 mg/kg), the “tumor volume response (in words), FIG. 4A” value was “reduction of tumor volume”.
For “Trastuzumab-((EG2-MI (2%)-(10 kDa PHF-BA (28%)-(AF-HPA-Ala (9%) [Example 15]”, the pIC50 in [1] is 9.96; in data set [10], 11.00; in [3] it was 7.63; in data set [4], 9.92; in data set [5], 10.30. For the same compound, the “complete regression out of 10 animals, FIG. 5” value in data set [8] (1 mg/kg single IV dose) came out at 1. In [8] (1 mg/kg single IV dose), the “partial regressions out of 10 animals, FIG. 5” value was 7. For the same compound, the “complete responses, FIG. 5” value in [8] (3 mg/kg single IV dose) worked out at 100. Moreover, in data set [8] (3 mg/kg single IV dose), the “tumor response (in words), FIG. 5” value is “complete regression of tumor volume”.
On to “Trastuzumab-((EG2-MI (2%)-(10 kDa PHF-BA (28%)-(AF-HPA-Ala (9%) [Example 17]”, for which the pIC50 in [1] was 9.37; in data set [13], 9.52; in data set [10], 10.52; in [3] it was 7.54; in data set [4] it was 10.22; in [5], 10.52. Moreover, in [11], the “ka” value was 8.30 ± 0.2 × 10^5 M^−1s^−1. Further, the “kd (dissociation rate constant)” value in data set [11] was 2.32 ± 0.2 × 10^−5 s^−1.
Regarding “Trastuzumab-((EG2-MI (2%)-(10 kDa PHF-BA (28%)-(AF-HPA-Ala (9%) [Example 18A]”, the pIC50 in [1] was 10.22; in data set [10] it was 10.70; in [3] it was 8.02; in [4], 9.80; in data set [5], 10.40. Further, the “ka” value in data set [11] was 4.67 ± 0.7 × 10^5 M^−1s^−1. Further, the “kd (dissociation rate constant)” value in [11] is reported as 2.07 ± 0.2 × 10^−5 s^−1.
Turning to “Trastuzumab-((EG2-MI (2%)-(10 kDa PHF-BA (28%)-(AF-HPA-Ala (9%) [Example 18B]”, the pIC50 is 10.40 in data set [1]; 11.00 in data set [10]; 7.48 in data set [3]; 9.92 in data set [4]; 10.30 in data set [5]. Besides, the “ka” value in [11] is reported as 3.05 ± 0.2 × 10^5 M^−1s^−1. Besides, the “kd (dissociation rate constant)” value in [11] is reported as 2.46 ± 0.1 × 10^−5 s^−1.
Regarding “Trastuzumab-((EG2-MI (2%)-(10 kDa PHF-BA (28%)-(AF-HPA-Ala (9%) [Example 18C]”, the pIC50 in data set [1] was 10.22; in data set [10], 10.70; in data set [3] it was 8.42; in [4], 9.74; in [5], 10.52. Besides, the “ka” value in data set [11] is on record as 4.25 ± 0.5 × 10^5 M^−1s^−1. Besides, in [11], the “kd (dissociation rate constant)” value is 2.03 ± 0.1 × 10^−5 s^−1.
“Trastuzumab-((EG2-MI (2.5%)-(10 kDa PHF-BA (28%)-(AF-HPA-Ala (8.4%) [Example 10]”: in data set [12] (2.0 mg/kg single IV dose), the “regressions, FIG. 4B” value came out at 100% and the “tumor free survival at the end of the study, FIG. 4B” value was “all of which remained tumor free survival”. The “tumor volume response (in words), FIG. 4B” value in [12] (2 mg/kg single dose or […] weekly for 3 weeks, IV) is “reduction of tumor volume”.
For the compound lintuzumab, the “tumor volume response (in words), FIG. 3” value in data set [7] is listed as “increase of tumor volume”.

A word on the pIC50: it is the IC50 on a negative log10 scale, so that one unit is a factor of ten.

(Values after patent US9808528B2, “Protein-polymer-drug conjugates and methods of using same” (priority 2014, dated 2017).)
